“Also recorded” adds a separate entry of the source. Where two headings read alike, the source gives them in different places.
Tests used:
[1] = system: wt-RRE-II, RBE3 and RBE3-neg; assay: SPR binding of aminoglycosides to RRE related RNAs; set-up: species or system HIV-1
Protocol: Samples were prepared by serial dilutions from stock solutions in RNase free microfuge tubes (Ambion) and were centrifuged at 14000 rpm for degassing. […] All procedures for binding studies were automated as methods using repetitive cycles of sample injection and regeneration. Typically, buffer was injected in the first two cycles to establish a stable baseline value. […] To minimize carry over, samples were injected in order of increasing concentration.
(§1) General Procedures for SPR Binding Studies done in Example 5. Samples were prepared by serial dilutions from stock solutions in RNase free microfuge tubes (Ambion) and were centrifuged at 14000 rpm for degassing. Unless otherwise noted, all binding studies were carried out using HBS buffer (Pharmacia Biosensor AB) which was used as obtained. All procedures for binding studies were automated as methods using repetitive cycles of sample injection and regeneration. Typically, buffer was injected in the first two cycles to establish a stable baseline value. Samples were injected at a flowrate of […] using either the KINJECT command. All aminoglycoside samples were injected from autoclaved 7 mm plastic vials that were capped with pierceable plastic crimp caps. To minimize carry over, samples were injected in order of increasing concentration. The running buffer was identical to the injection buffer.

RBE3 = assay: SPR binding of aminoglycosides to RBE3; set-up: species or system HIV-1; details: 25 C; for Kd: pH 7.0, 10 mM HEPES, 150 mM NaCl, 0.1 mM EDTA, Scatchard slope; for Scatchard plot x-axis intercept (RBE3): pH 7.0, 150 mM NaCl
Protocol: (§2) FIGS. 9A and 9B illustrate neomycin B binding to RBE3, RBE3-neg and wt-RRE-II. (A) Semilogarithmic plot. […] Conditions: pH 7.0, 10 mM HEPES, 150 mM NaCl, 0.1 mM EDTA, […].
(§3) FIGS. 10A and 10B illustrate paromomycin binding to RBE3, RBE3-neg and wt-RRE-II. (A) Semilogarithmic plot; the dashed line indicates the binding of neomycin B to wt-RRE-II for comparison (B) Scatchard plot. […] Conditions: pH 7.0, 10 mM HEPES, 150 mM NaCl, 0.1 mM EDTA, […].
(§4) Binding of the aminoglycoside to all three RNA oligonucleotides is observed starting in the low nanomolar concentration range and is non-saturable over the concentration range investigated. […] The high degree of non-specific binding is not surprising considering that aminoglycosides are highly charged polycations that tend to associate nonspecifically with the polyanionic phosphate backbone of RNA. […] Data points corresponding to 0.5 or more equivalents of neomycin B represent equilibrium values and can be analyzed with respect to stoichiometry and affinity of aminoglycoside binding. […] Both sequences bind one molecule of neomycin B with submicromolar affinity followed by weaker association with several additional equivalents of the antibiotic.
(§5) Samples were prepared by serial dilutions from stock solutions in RNase free microfuge tubes (Ambion) and were centrifuged at 14000 rpm for degassing. Buffers were filtered through sterile 0.2 &m nylon membranes (Nalgene) under vacuum, except for BIA certified HBS buffer (Pharmacia Biosensor AB) which was used as obtained. All procedures for binding studies were automated as methods using repetitive cycles of sample injection and regeneration. Typically, buffer was injected in the first two cycles to establish a stable baseline value. Samples were injected at a flowrate of 5-10 &L/min using either the KINJECT or the COINJECT command. All aminoglycoside and Rev27 samples were injected from autoclaved 7 mm plastic vials that were capped with pierceable plastic crimp caps. To minimize carry over, samples were injected in order of increasing concentration. The running buffer was identical to the injection buffer, except for the salt dependence study where a single running buffer was used for all injections. Expected values for the equilibrium response of one equivalent of analyte were calculated from the relative molecular weight of the analyte and the immobilized RNA ligand in each flowcells. These values were adjusted by multiplying with a factor of 0.8 or 0.57 for Rev27 or aminoglycosides respectively. These factors arise from the different molar refractive indices of RNA and the analyte and were determined from the Scatchard plot x-axis intercepts of the 1:1 binding isotherms for Rev27 and neomycin B.
Binding Studies with Aminoglycosides. […]

Neo16-bd = assay: SPR binding of aminoglycosides to Neo16-bd aptamer
Protocol: Conditions: 10 mM HEPES (pH 7.4), 0.1 mM EDTA and NaCl as indicated.
The binding of aminoglycosides to RNA is likely to involve substantial ionic contributions and therefore should be strongly influenced by competing buffer ions. […] We studied the salt dependence of neomycin B binding to RBE3, RBE3-neg and Neo16-bd (FIG. 14) by varying the concentration of NaCl included in the injection buffer (10 mM HEPES, pH 7.4, 0.1 mM EDTA). […] This neomycin binding motif was obtained by in vitro selection under conditions of high ionic strength.
To further improve our understanding of specific aminoglycoside recognition, we have also included an artificial aminoglycoside receptor that was evolved in vitro to recognize an aminoglycoside. A number of RNA aptamers for small molecules have been reported in recent years. Among them are aptamers that recognize the aminoglycosides tobramycin, lividomycin and kanamycin.
For comparison, the corresponding values for AS-wt are also included.
as §1

wt-RRE-II = assay: SPR binding of aminoglycosides to wt-RRE-II; set-up: species or system HIV-1; details: for dissociation from wt-RRE-II after 1 min (in words): aminoglycoside-free buffer, pH 7.4, 150 mM NaCl
Protocol: as §2, §3
FIG. 11 illustrates the kinetic stability of wt-RRE-II complexes with neomycin B vs. paromomycin. […] Data points were taken after 1 min of dissociation.
as §4, §5
Binding Studies with Aminoglycosides.
Neomycin B sulfate (Fluka) was converted to the free base by passing it through Amberlite IRA 400 (OH-- form) and purified by ion exchange chromatography on Dowex 1-X2 100 to remove neomycin C; the purity of neomycin B was verified by NMR in D2 O. Paromomycin sulfate was obtained from Sigma and used as received. Samples were prepared by dilution from 10 mM stock solutions in injection buffer (10 mM HEPES, pH 7.4, 150 mM NaCl, 3.4 mM EDTA). Data points were taken after an association phase of 30 min. A 2 min regeneration pulse of 150 mM Na2 SO4 in injection buffer was used between injections. […]

SMILES | discrimination between the three RRE related sequences (in words) [1] | weaker binding to the three RRE related RNAs than to AS-wt [1] [fold] | Kd (RBE3; read-out: Kd (RBE3), neomycin B) [µM] | Scatchard plot x-axis intercept (RBE3) (RBE3) | selectivity for binding Neo16-bd vs. RBE3 or RBE3-neg (Neo16-bd; 250 mM NaCl, 10 mM HEPES, pH 7.4, 0.1 mM EDTA) | specificity of Neo16bd relative to RBE3 (Neo16-bd; HBS buffer + 150 mM NH4Cl) | Kd (Neo16-bd; HBS buffer + 150 mM NH4Cl, read-out: Kd, Neo16bd, high salt) [µM] | number of molecules/sites bound with submicromolar affinity (wt-RRE-II) (wt-RRE-II; SPR) | dissociation from wt-RRE-II after 1 min (in words) (wt-RRE-II) | relative binding affinity for wt-RRE-II (in words) (wt-RRE-II; comparison of aminoglycosides) | lower affinity compared to neomycin B ([1]; wt-RRE-II, RBE3 and RBE3-neg, equilibrium binding) | Kd (RBE3; read-out: Kd (RBE3), paromomycin) [µM] | discrimination between paromomycin and neomycin derivatives of the same charge, Neo16bd (Neo16-bd)
NC[C@@H]1O[C@H](O[C@H]2[C@@H](O)[C@H](O[C@@H]3[C@@H](O)[C@H](N)C[C@H](N)[C@H]3O[C@H]3O[C@H](CN)[C@@H](O)[C@H](O)[C@H]3N)O[C@@H]2CO)[C@H](N)[C@@H](O)[C@@H]1O [Neomycin B] | no discrimination | 12 | 0.21 | 1.01 | approximately 100 fold | greater than 300 fold | < 0.01 | three different sites, each with a submicromolar dissociation constant; also recorded: three molecules of neomycin B are bound with submicromolar affinity; also recorded: up to three molecules | apparent 1:1 binding isotherm | highest affinity | – | – | –
NC[C@@H]1O[C@H](O[C@H]2[C@@H](O)[C@H](O[C@@H]3[C@@H](O)[C@H](N)C[C@H](N)[C@H]3O[C@H]3O[C@H](CO)[C@@H](O)[C@H](O)[C@H]3N)O[C@@H]2CO)[C@H](N)[C@@H](O)[C@@H]1O [Paromomycin] | – | – | – | 1.04 | – | – | – | – | No apparent 1:1 binding isotherm is discernible | – | approximately 15 fold | 2.8 | greater than 20 fold

Reference: patent US6120997A, “Nucleic acid binders having an hydroxyamine motif” (The Scripps Research Institute, priority 1998, dated 2000)
